Assays:
[1] = tested on: IL-15 induced P-STAT5 in human PBMC; assay: PBMC IL-15 Induced P-STAT5; format: cell-based; conditions: human PBMC, IL-15 final 41 ng/mL; read-out: PBMC IL15_pSTAT5_IC50
Outline: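 Thawed human PBMC, rested in human plasma, were preincubated 15 min at 37 °C with compound (0.2% DMSO), then stimulated 15 min with IL-15 at 41 ng/mL final. After paraformaldehyde fixation and methanol permeabilisation, Alexa Fluor 647 anti-STAT5 staining overnight at 4 °C was analysed by flow cytometry on total lymphocytes.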

JAK3 enzyme [2] = molecular target: T1, JAK3 enzyme (Homo sapiens, UniProt P52333); assay: JAK Caliper Enzyme Assay at 1 mM ATP; format: biochemical
T1 sequence (P52333 1-1124): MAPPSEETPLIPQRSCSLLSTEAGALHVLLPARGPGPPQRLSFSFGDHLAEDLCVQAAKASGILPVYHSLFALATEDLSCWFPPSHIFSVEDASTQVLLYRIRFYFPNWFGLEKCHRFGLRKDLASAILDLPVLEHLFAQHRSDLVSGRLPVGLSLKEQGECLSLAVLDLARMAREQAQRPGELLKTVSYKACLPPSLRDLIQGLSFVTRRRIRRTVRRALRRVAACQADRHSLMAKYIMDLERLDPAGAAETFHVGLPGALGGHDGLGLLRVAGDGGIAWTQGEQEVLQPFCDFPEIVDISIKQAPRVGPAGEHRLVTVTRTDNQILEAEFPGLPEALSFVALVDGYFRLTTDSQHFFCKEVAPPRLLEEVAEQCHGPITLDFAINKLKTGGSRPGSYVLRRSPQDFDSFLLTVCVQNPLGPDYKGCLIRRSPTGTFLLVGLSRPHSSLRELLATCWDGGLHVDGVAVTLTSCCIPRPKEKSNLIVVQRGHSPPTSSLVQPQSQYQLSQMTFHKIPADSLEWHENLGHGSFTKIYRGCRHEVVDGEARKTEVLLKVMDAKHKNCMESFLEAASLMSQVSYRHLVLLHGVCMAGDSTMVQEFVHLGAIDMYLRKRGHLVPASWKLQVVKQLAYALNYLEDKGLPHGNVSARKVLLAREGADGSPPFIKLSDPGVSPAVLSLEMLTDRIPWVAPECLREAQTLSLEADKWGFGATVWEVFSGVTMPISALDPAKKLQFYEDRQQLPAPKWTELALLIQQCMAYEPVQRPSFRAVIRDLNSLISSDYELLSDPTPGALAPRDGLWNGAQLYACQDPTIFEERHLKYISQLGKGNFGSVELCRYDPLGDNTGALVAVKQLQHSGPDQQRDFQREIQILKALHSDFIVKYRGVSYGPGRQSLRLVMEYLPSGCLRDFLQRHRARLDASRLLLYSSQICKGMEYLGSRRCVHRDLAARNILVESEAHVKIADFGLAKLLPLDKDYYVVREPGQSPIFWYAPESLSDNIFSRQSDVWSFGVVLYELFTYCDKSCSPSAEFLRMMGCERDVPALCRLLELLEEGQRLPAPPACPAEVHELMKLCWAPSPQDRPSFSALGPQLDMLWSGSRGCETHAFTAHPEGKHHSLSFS
Outline: (§1)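 Compound tested as 11-point half-log DMSO dilution series (top 600 μM in DMSO, a dilution-plate level). Enzyme level and time set for 20%-30% peptide phosphorylation; phosphorylated and unphosphorylated peptide separated and quantified by Caliper LC3000 mobility shift.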

JAK3 enzyme [3] = molecular target: T1, JAK3 enzyme; assay: JAK Caliper Enzyme Assay at 4 μM ATP; format: biochemical
Outline: as §1

SMILES	IC50 [1] [nM]	IC50 (JAK3 enzyme [2]) [nM]	IC50 (JAK3 enzyme [3]) [nM]
C=CC(=O)N1CC[C@@H](Nc2cnc3[nH]cc(C(=O)NCC(C)(F)F)c3n2)[C@@H](OC)C1 [Example 321, 2-{[(3S,4R)-1-acryloyl-3-methoxypiperidin-4-yl]amino}-N-(2,2-difluoropropyl)-5H-pyrrolo[2,3-b]pyrazine-7-carboxamide]	310	46	0.448
C=CC(=O)N1CCC(C)(Nc2cnc3[nH]cc(C(=O)NC4CCC4)c3n2)CC1 [Example 324, 2-[(1-acryloyl-4-methylpiperidin-4-yl)amino]-N-cyclobutyl-5H-pyrrolo[2,3-b]pyrazine-7-carboxamide]	203	21	0.418
C=CC(=O)N1CC[C@H](Nc2cnc3[nH]cc(C(=O)NCC)c3n2)[C@H](OC)C1 [Example 326, 2-{[(3R,4S)-1-acryloyl-3-methoxypiperidin-4-yl]amino}-N-ethyl-5H-pyrrolo[2,3-b]pyrazine-7-carboxamide]	330	50	0.455
C=CC(=O)N1CCN(c2cnc3[nH]cc(C(=O)N[C@H](C)COC)c3n2)CC1(C)C [Example 327]	261	56	0.546
C=CC(=O)N1CC[C@@H](Nc2cnc3[nH]cc(C(=O)N[C@H](C)COC)c3n2)[C@@H](OC)C1 [Example 331, 2-{[(3S,4R)-1-acryloyl-3-methoxypiperidin-4-yl]amino}-N-[(2R)-1-methoxypropan-2-yl]-5H-pyrrolo[2,3-b]pyrazine-7-carboxamide]	288	42	0.313
C=CC(=O)N1CCN(c2cnc3[nH]cc(C(=O)N[C@H](C)COC)c3n2)CC1 [Example 332]	87.7	22	0.262

Reference: patent US10703756B2, “Pyrrolo[2,3-D]pyrimidinyl, pyrrolo[2,3-B]pyrazinyl, pyrrolo[2,3-B]pyridinyl acrylamides and epoxides thereof” (Pfizer Inc., priority 2015, dated 2020)
